The record followed here is article PMC5147005 (The Journal of Cell Biology, 2016).

As usually defined, the Kd is the equilibrium constant for the complex coming apart. Low values mean tighter binding, high ones weaker binding. A word on the stoichiometry N: it is a count of units in the complex or per binding partner.

For data set [1], the target named is T1, MFN1-MGD (minimal GTPase domain of human MFN1) (Homo sapiens, UniProt Q8IWA4, DEL365-693).
T1 sequence (Q8IWA4 1-364): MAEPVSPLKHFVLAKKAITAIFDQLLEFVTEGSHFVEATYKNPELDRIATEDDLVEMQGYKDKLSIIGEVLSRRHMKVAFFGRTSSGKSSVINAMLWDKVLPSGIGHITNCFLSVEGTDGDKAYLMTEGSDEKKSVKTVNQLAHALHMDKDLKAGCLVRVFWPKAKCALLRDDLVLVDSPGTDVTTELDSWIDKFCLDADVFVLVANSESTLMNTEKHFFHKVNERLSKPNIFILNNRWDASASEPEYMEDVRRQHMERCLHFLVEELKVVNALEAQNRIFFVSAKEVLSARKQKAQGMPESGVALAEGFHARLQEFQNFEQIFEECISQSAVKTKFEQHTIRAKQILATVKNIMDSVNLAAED
T1 sequence (Q8IWA4 694-741): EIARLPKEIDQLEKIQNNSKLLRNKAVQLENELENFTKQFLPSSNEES
Put plainly: isothermal titration calorimetry. Type of data set: binding.

The data set “AUC” deals with the molecule itself. Put plainly: AUC.

For `Nc1nc2c(ncn2[C@@H]2O[C@H](COP(=O)(O)OP(=O)(O)O)[C@@H](O)[C@H]2O)c(=O)[nH]1` [GDP], in data set [1], the Kd stood at 91.7 µM. That is a double-digit micromolar value.

B1: human MFN1 minimal GTPase domain (MGD), wild type (domain or fragment)
chain: MAEPVSPLKHFVLAKKAITAIFDQLLEFVTEGSHFVEATYKNPELDRIATEDDLVEMQGYKDKLSIIGEVLSRRHMKVAFFGRTSSGKSSVINAMLWDKVLPSGIGHITNCFLSVEGTDGDKAYLMTEGSDEKKSVKTVNQLAHALHMDKDLKAGCLVRVFWPKAKCALLRDDLVLVDSPGTDVTTELDSWIDKFCLDADVFVLVANSESTLMNTEKHFFHKVNERLSKPNIFILNNRWDASASEPEYMEDVRRQHMERCLHFLVEELKVVNALEAQNRIFFVSAKEVLSARKQKAQGMPESGVALAEGFHARLQEFQNFEQIFEECISQSAVKTKFEQHTIRAKQILATVKNIMDSVNLAAEDGSGSGSGGSEIARLPKEIDQLEKIQNNSKLLRNKAVQLENELENFTKQFLPSSNEES
As for B1, the “stoichiometry N” value in the data set “AUC” is 2.
